In patent US20240262803A1, “COMPOUNDS, COMPOSITIONS AND METHODS OF TREATING DISORDERS” (Chungdu Anticancer Bioscience Ltd, priority 2021, published 2024):
Like-named read-outs stand apart in the source and are kept apart here.

Experiments:
[1] = test system: RPEMYC^H2B-GFP cells; test: Mechanism-informed phenotypic screening assay (mitotic arrest, polyploidy; GE IN-Cell Analyzer 2000); assay type: cell-based; details: 20 nM to 20 μM, 24, 48 or 72 hours, read-out: Mitotic Arrest (≥5%)
[2] = test system: RPEMYC^H2B-GFP cells; test: as above; assay type: cell-based; details: 20 nM to 20 μM, 24, 48 or 72 hours; for minimal effective concentration: read-out: Min. Effective conc. for polyploidy (≥5%)
Procedure: We have Previously Developed a Mechanism-Informed Phenotypic Screening Assay to identify novel antimitotic agents (Li et al. 2019). Equipped with a prior understanding of the versatile functions of the chromosomal passenger protein (CPP) complex in orchestrating karyokinesis and cytokinesis, the screening assay is to score for phenotypes typically seen when the CPP complex is disabled. Specifically, the parameters for a positive hit are a temporary elevation of mitotic index (MI) at 24 hours of drug treatment and an accumulation of polyploid cells at 48 hours of drug treatment, indicative of mitotic arrest and cytokinetic failure respectively. These parameters exclude compounds that elicit only a prolonged arrest of cells in mitosis, a phenotype typically provoked by spindle toxins. The screening procedure is briefly summarized here. RPEMYC^H2B-GFP cells engineered to express a Histone 2B-EGFP fusion protein were passaged as batches of 96-well plates, 18-24 hours before exposure to the chemical compounds of the present disclosure at concentrations from 20 nM to 20 μM. At 24, 48 or 72 hours after initiation of treatment, cells were analyzed for either an arrest in mitosis or a change in DNA content by GE IN-Cell Analyzer 2000. As set forth in table 2 below, a value of greater than or equal to […] and less than or equal to 1.0 μM is marked e “A”; a value greater than […] and less than or equal to 10.0 μM is marked “B”; a value greater than 10.0 μM and less than or equal to 30.0 μM is marked “C”; and a value greater than 30.0 μM is marked “D.”

SMILES	minimal effective concentration [1] [µM]	minimal effective concentration [2] [µM]	Min. Effective conc. for polyploidy (≥5%) [2]	Mitotic Arrest (≥5%) [2]
COc1cc(Oc2ncccc2-c2ccncc2)cc(C(=O)N(C)C)c1 [Compound 5, 3-([3,4′-bipyridin]-2-yloxy)-5-methoxy-N,N-dimethylbenzamide]	0.001 to 10	0.001 to 10		
CCOc1cc(Oc2ncccc2-c2ccncc2)cc(C(=O)NC)c1 [Compound 6, 3-([3,4′-bipyridin]-2-yloxy)-5-ethoxy-N-methylbenzamide]	1	1		
COc1cc(Oc2ncccc2-c2ccncc2)cc(-c2nc(C)no2)c1 [Compound 11, 5-(3-([3,4′-bipyridin]-2-yloxy)-5-methoxyphenyl)-3-methyl-1,2,4-oxadiazole]	1	1		
COc1cc(OC)cc(Oc2nccnc2-c2ccncc2)c1 [Compound 15, 2-(3,5-dimethoxyphenoxy)-3-(pyridin-4-yl)pyrazine]	1	1		
CNC(=O)c1cc(OC)cc(Oc2nccnc2-c2ccncc2)c1 [Compound 18, 3-methoxy-N-methyl-5-((3-(pyridin-4-yl)pyrazin-2-yl)oxy)benzamide]	1	1		
Cc1noc(-c2cc(Oc3ncccc3-c3ccnc(N)n3)cc(-c3nc(C)no3)c2)n1 [Compound 22, 4-(2-(3,5-bis(3-methyl-1,2,4-oxadiazol-5-yl)phenoxy)pyridin-3-yl)pyrimidin-2-amine]	> 30	> 30		
COc1cc(Oc2ncccc2-c2ccnc(N)n2)cc(C(=O)O)c1 [Compound 24, 3-((3-(2-aminopyrimidin-4-yl)pyridin-2-yl)oxy)-5-methoxybenzoic acid]	> 30	> 30		
CNC(=O)c1cc(OC)cc(Oc2ncccc2-c2ccnc(N)n2)c1 [Compound 25, 3-((3-(2-aminopyrimidin-4-yl)pyridin-2-yl)oxy)-5-methoxy-N-methylbenzamide]	1	1		
COc1cc(OC)cc(Oc2ncccc2-c2ccnc(Cl)c2)c1 [Compound 44, 2′-chloro-2-(3,5-dimethoxyphenoxy)-3,4′-bipyridine]	1	1		
COc1cc(OC)cc(Oc2ncccc2-c2cccnc2)c1 [Compound 47, 2-(3,5-dimethoxyphenoxy)-3,3′-bipyridine]	1	1		
COc1cc(OC)cc(Oc2nccnc2-c2cccnc2)c1 [Compound 50]	1	1		
COc1cc(OC)cc(Oc2ncccc2-c2ccccc2)c1 [Compound 55, 2-(3,5-dimethoxyphenoxy)-3-phenylpyridine]	0.001 to 10	0.001 to 10		
COC(=O)c1cc(Oc2ncccc2-c2ccccc2)cc(C(=O)OC)c1 [Compound 56, dimethyl 5-((3-phenylpyridin-2-yl)oxy)isophthalate]	1	1		
COc1cc(OC)cc(Oc2nccnc2-c2ccccc2)c1 [Compound 57, 2-(3,5-dimethoxyphenoxy)-3-phenylpyrazine]	0.001 to 10	0.001 to 10		
COc1cc(OC)cc(Oc2ncccc2-c2cc(OC)cc(OC)c2)c1 [Compound 58, 2-(3,5-dimethoxyphenoxy)-3-(3,5-dimethoxyphenyl)pyridine]	1	1		
COc1cc(OC)cc(Oc2nccnc2-c2cc(OC)cc(OC)c2)c1 [Compound 59, 2-(3,5-dimethoxyphenoxy)-3-(3,5-dimethoxyphenyl)pyrazine]	0.001 to 10	0.001 to 10		
COc1cc(OC)cc(Oc2ncccc2-c2cc(OC)ncn2)c1 [Compound 60, 4-(2-(3,5-dimethoxyphenoxy)pyridin-3-yl)-6-methoxypyrimidine]	1	1		
COc1cc(OC)cc(Oc2ncccc2-c2ccnc(N)c2)c1 [Compound 61, 2-(3,5-dimethoxyphenoxy)-[3,4′-bipyridin]-2′-amine]	1	1		
COc1cc(OC)cc(Oc2ncccc2-c2ccnc(SC)n2)c1 [Compound 62, 4-(2-(3,5-dimethoxyphenoxy)pyridin-3-yl)-2-(methylthio)pyrimidine]	0.001 to 10	0.001 to 10		
CNc1cc(-c2cccnc2Oc2cc(OC)cc(OC)c2)ncn1 [Compound 64, 6-(2-(3,5-dimethoxyphenoxy)pyridin-3-yl)-N-methylpyrimidin-4-amine]	0.001 to 10	0.001 to 10		
COc1cc(OC)cc(Oc2ncccc2-c2ccncc2N)c1 [Compound 65, 2-(3,5-dimethoxyphenoxy)-[3,4′-bipyridin]-3′-amine]	0.001 to 10	0.001 to 10		
CNC(=O)c1cc(OC)cc(Oc2ncccc2-c2ccnc(C(F)(F)F)c2)c1 [Compound 66, 3-methoxy-N-methyl-5-((2′-(trifluoromethyl)-[3,4′-bipyridin]-2-yl)oxy)benzamide]	1	1		
CCOc1cc(Oc2ncccc2-c2ccnc(C(F)(F)F)c2)cc(C(=O)NC)c1 [Compound 67, 3-ethoxy-N-methyl-5-((2′-(trifluoromethyl)-[3,4′-bipyridin]-2-yl)oxy)benzamide]	0.001 to 10	0.001 to 10		
COc1cc(OC)cc(Oc2cncc(-c3ccccc3)n2)c1 [Compound 81, 2-(3,5-dimethoxyphenoxy)-6-phenylpyrazine]	0.001 to 10	0.001 to 10		
COc1cc(OC)cc(Oc2cncc(-c3cccnc3)n2)c1 [Compound 82, 2-(3,5-dimethoxyphenoxy)-6-(pyridin-3-yl)pyrazine]	0.001 to 10	0.001 to 10		
COc1cc(OC)cc(Oc2cncc(-c3cccc(F)c3)n2)c1 [Compound 83, 2-(3,5-dimethoxyphenoxy)-6-(3-fluorophenyl)pyrazine]	> 30	> 30		
COc1cc(OC)cc(Oc2ncccc2-c2ccnc(Cl)n2)c1 [Compound 84, 2-chloro-4-(2-(3,5-dimethoxyphenoxy)pyridin-3-yl)pyrimidine]	10 to 30	> 30		
CCOCCOc1cc(-c2cccnc2Oc2cc(OC)cc(C(=O)NC)c2)ccn1 [Compound 85, 3-((2′-(2-ethoxyethoxy)-[3,4′-bipyridin]-2-yl)oxy)-5-methoxy-N-methylbenzamide]	1	1		
CCOCCOc1cc(-c2cccnc2Oc2cc(OC)cc(-n3cccn3)c2)ccn1 [Compound 86, 2′-(2-ethoxyethoxy)-2-(3-methoxy-5-(1H-pyrazol-1-yl)phenoxy)-3,4′-bipyridine]	1	1		
COc1cc(NC(C)=O)cc(Oc2ncccc2-c2ncccn2)c1 [Compound 93, N-(3-methoxy-5-((3-(pyrimidin-2-yl)pyridin-2-yl)oxy)phenyl)acetamide]			inactive	inactive
